In US11771697B2, “Small molecule degraders of polybromo-1 (PBRM1)” (DANA-FARBER CANCER INSTITUTE, INC., priority 2018, dated 2023):
Each block holds one compound with its values, some of them ahead of it.

Tests used:
Assay type in all cases: cell-based
[1] = biological target: T1, CRBN (Homo sapiens, UniProt Q96SW2); experiment: Cellular CRBN binding assay (BRD4BD2-GFP/mCherry reporter, competition with 100 nM dBET6); details: GFP/RFP ratio, Flip-In 293 cells expressing BRD4BD2-GFP, 5 hours
T1 construct: Cells stably expressing BRD4BD2-GFP with mCherry reporter were seeded; endogenous in cells; host or cells: Flip-In 293 cells stably expressing BRD4BD2-eGFP-P2A-mCherry
Procedure: (§1) BRD4BD2 were subcloned into mammalian pcDNA5/FRT Vector (Ampicillin and Hygromycin B resistant) modified to contain MCS-eGFP-P2A-mCherry. Stable cell lines expressing eGFP-protein fusion and mCherry reporter were generated using the Flip-In™ 293 system. Plasmid (0.3 μg) and pOG44 (4.7 μg) DNA were preincubated in 100 of Opti-MEM I (Gibco™, Life Technologies) media containing 0.05 mg/ml Lipofectamine® 2000 (Invitrogen) for 20 minutes and added to Flip-In™ 293 cells containing 1.9 ml of DMEM media (Gibco™, Life Technologies) per well in a 6-well plate format (Falcon, 353046). Cells were propagated after 48 hours and transferred into a 10 cm^2 plate (Corning, 430165) in DMEM media containing 50 μg/ml of Hygromycin B (REF 10687010, Invitrogen) as a selection marker. Following a 2-3 passage cycle, FACS (FACSAria II, BD) was used to enrich for cells expressing eGFP and mCherry.
Cells stably expressing BRD4BD2-GFP with mCherry reporter were seeded at 30-50% confluency in 384 well plates (3764, Corning) with 50 μl FluoroBrite DMEM media (Gibco™, A18967) containing 10% FBS per well a day before compound treatment. Compounds and 100 nM dBET6 were dispensed using D300e Digital Dispenser (HP) normalized to 0.5% DMSO and incubated with cells for 5 hours. The assay plate was imaged immediately using Acumen eX3/HCl (TTPLabtech) High Content Imager with 488 nm and 561 nm lasers in […] grid per well format. The resulting images were analyzed using CellProfiler (Carpenter, et al., Genome Biol. 7:R100 PIMD 17076895 (2006)).

[2] = biological target: T2, PBRM1 (Homo sapiens, UniProt Q86U86); experiment: Kelly cell PBRM1 Western blot for cellular degradation of proteins; details: Kelly cells; relative to GAPDH, compared to DMSO
T2 construct: near complete degradation of endogenous PBRM1; endogenous in cells; host or cells: Kelly cells
Procedure: Kelly cells were treated with compounds as indicated and incubated for 6 or 24 hours. Samples were run on 4-20% or Any kD™ SDS-PAGE Gels (Bio-Rad), and transferred to PVDF membranes using the iBlot 2.0 dry blotting system (Thermo-Fisher Scientific). Membranes were blocked with LI-COR blocking solution (LI-COR), and incubated with primary antibodies overnight, followed by three washes in LI-COR blocking solution and incubation with secondary antibodies for one hour in the dark. After three final washes, the membranes were imaged on a LI-COR fluorescent imaging station (LI-COR). Antibodies used: anti-PBRM1 at 1:500 dilution (Cell Signaling, clone D3F70), anti-GAPDH at 1:10,000 dilution (G8795, Sigma), IRDye 680 Donkey anti-mouse at 1:10,000 dilution (926-68072, LI-COR).

[3] = biological target: T3, PBRM1 PB5 (Homo sapiens, UniProt Q86U86); experiment: Imaging based PBRM1 PB5 GFP/RFP degradation assay; details: after 3 h of incubation; for degradation of PBRM1 PB5: FIG. 3H-3J
Procedure: Cells stably expressing PBRM1 PB5 in Example 16, were seeded at 30-50% confluency in 384 well plates (3764, Corning) with 50 μL FluoroBrite DMEM media (Gibco, A18967) containing 10% FBS per well a day before compound treatment. […] The assay plate was imaged immediately using Acumen eX3/HCl (TTPLabtech) High Content Imager with 488 nm and 561 nm lasers in […] grid per well format. The resulting images were analyzed using CellProfiler (Carpenter et al., Genome Biol. 7R100 PIMD 17076895 (2006)). A series of image analysis steps (‘image analysis pipeline’) was constructed.
The CellProfiler pipeline steps were as follows. First, the red and green channels were aligned and cropped to target the middle of each well (to avoid analysis of heavily clumped cells at the edges), and a background illumination function was calculated for both red and green channels of each well individually and subtracted to correct for illumination variations across the 384-well plate from various sources of error. An additional step was then applied to the green channel to suppress the analysis of large auto fluorescent artifacts and enhance the analysis of cell specific fluorescence by way of selecting for objects under a given size, 30 A.U., and with a given shape, speckles. Cells that were mCherry-positive were then identified in the red channel filtering for objects between 8-60 pixels in diameter and using intensity to distinguish between clumped objects. The green channel was then segmented into GFP positive and negative areas and objects were labeled as GFP positive if at least 40% of it overlapped with a GFP positive area. The fraction of GFP-positive cells/mCherry-positive cells (GFP/mCherry ratio) in each well was then calculated, and the green and red images were rescaled for visualization. The GFP/mCherry ratio was normalized to DMSO visualized in GraphPad Prism 7.

[4] = biological target: T3, PBRM1 PB5; experiment: PBRM1 PB5 GFP/RFP degradation assay (flow cytometry reporter assay); details: 5 hours, FIG. 3A-3F
Procedure: as §1, with “PBRM1 PB5 was” for “BRD4BD2 were”, “[…])” for “μg)”, “Lipofectamine” for “Lipofectamine®”
Cells were seeded at 30-50% confluency in either 24, 48 or 96 well plates (3524, 3548, 3596, respectively, Costar) a day before compound treatment. Titrated compounds were incubated with cells for 5 hours following trypsinization and resuspension in DMEM media, transferred into 96-well plates (353910, Falcon) and analyzed by flow cytometer (guava easyCyte HT, Millipore). Signal from minimal 3000 events per well was acquired and the eGFP and mCherry florescence were monitored. Data was analyzed using FlowJo® (FlowJo, LLC). Forward and side scatter outliers, frequently associated with cell debris, were removed leaving >90% of total cells, followed by removal of eGFP and mCherry signal outliers, leaving 88-90% of total cells creating the set used for quantification. The eGFP protein abundance relative to mCherry was then quantified as a ten-fold amplified ratio for each individual cell using the formula: 10×eGFP/mCherry. The median of the ratio was then calculated per set, normalized to the median of the DMSO ratio.
The assay described in Example 16 was repeated, using compounds 3-8 and the control (“negative compound” (G)).

SMILES: Nc1nnc(-c2ccccc2O)cc1N1CCN(C(=O)CCOCCOCCNc2cccc3c2CN(C2CCC(=O)NC2=O)C3=O)CC1 (centres unmarked) [Compound 2, 3-(4-((2-(2-(3-(4-(3-amino-6-(2-hydroxyphenyl)pyridazin-4-yl)piperazin-1-yl)-3-oxopropoxy)ethoxy)ethyl)amino)-1-oxoisoindolin-2-yl)piperidine-2,6-dione]
IC50 [1]: 20900 nM

SMILES: Nc1nnc(-c2ccccc2O)cc1N1CCN(C(=O)CCOCCNc2cccc3c2CN(C2CCC(=O)NC2=O)C3=O)CC1 (centres unmarked) [Compound 1, 3-(4-((2-(3-(4-(3-amino-6-(2-hydroxyphenyl)pyridazin-4-yl)piperazin-1-yl)-3-oxopropoxy)ethyl)amino)-1-oxoisoindolin-2-yl)piperidine-2,6-dione]
IC50 [1]: 30500 nM
degradation of PBRM1 (Western blot, FIG. 4) [2]: degradation of PBRM1

SMILES: Nc1nnc(-c2ccccc2O)cc1N1CCN(CCCCCCNC(=O)COc2cccc3c2C(=O)N(C2CCC(=O)NC2=O)C3=O)CC1 (centres unmarked) [Compound 13, N-(6-(4-(3-amino-6-(2-hydroxyphenyl)pyridazin-4-yl)piperazin-1-yl)hexyl)-2-((2-(2,6-dioxopiperidin-3-yl)-1,3-dioxoisoindolin-4-yl)oxy)acetamide]
degradation of PBRM1 PB5 [3]: potent degradation
hook effect ([3]; high compound concentration): hook effect

SMILES: Cc1ncsc1-c1ccc([C@H](C)NC(=O)[C@@H]2C[C@@H](O)CN2C(=O)[C@@H](NC(=O)CCCCCCCCN2CCN(c3cc(-c4ccccc4O)nnc3N)CC2)C(C)(C)C)cc1 [Compound 11, (2S,4R)-1-((S)-2-(9-(4-(3-amino-6-(2-hydroxyphenyl)pyridazin-4-yl)piperazin-1-yl)nonanamido)-3,3-dimethylbutanoyl)-4-hydroxy-N—((S)-1-(4-(4-methylthiazol-5-yl)phenyl)ethyl)pyrrolidine-2-carboxamide]
degradation of PBRM1 PB5 [3]: less effective

SMILES: Nc1nnc(-c2ccccc2O)cc1N1CCN(C(=O)COc2cccc3c2C(=O)N(C2CCC(=O)NC2=O)C3=O)CC1 (centres unmarked) [Compound 4, 4-(2-(4-(3-amino-6-(2-hydroxyphenyl)pyridazin-4-yl)piperazin-1-yl)-2-oxoethoxy)-2-(2,6-dioxopiperidin-3-yl)isoindoline-1,3-dione]
DC50 [4]: 21.8 nM

SMILES: Cc1ncsc1-c1ccc([C@H](C)NC(=O)[C@@H]2C[C@@H](O)CN2C(=O)[C@@H](NC(=O)CCCCCCCC(=O)N2CCN(c3cc(-c4ccccc4O)nnc3N)CC2)C(C)(C)C)cc1 [Compound 12, (2S,4R)-1-((S)-2-(9-(4-(3-Amino-6-(2-hydroxyphenyl)pyridazin-4-yl)piperazin-1-yl)-9-oxononanamido)-3,3-dimethylbutanoyl)-4-hydroxy-N—((S)-1-(4-(4-methylthiazol-5-yl)phenyl)ethyl)pyrrolidine-2-carboxamide]
degradation of PBRM1 PB5 [3]: potent degradation

SMILES: Nc1nnc(-c2ccccc2O)cc1N1CCN(C(=O)CCCCCCCCCCOc2cccc3c2C(=O)N(C2CCC(=O)NC2=O)C3=O)CC1 (centres unmarked) [Compound 5, 4-((11-(4-(3-amino-6-(2-hydroxyphenyl)pyridazin-4-yl)piperazin-1-yl)-11-oxoundecyl)oxy)-2-(2,6-dioxopiperidin-3-yl)isoindoline-1,3-dione]
DC50 [4]: 3.64 nM

Now from value to compound:

DC50 [4]: 6.35 nM
SMILES: Nc1nnc(-c2ccccc2O)cc1N1CCN(C(=O)CCCCCCOc2cccc3c2C(=O)N(C2CCC(=O)NC2=O)C3=O)CC1 (centres unmarked) [Compound 7, 4-((7-(4-(3-amino-6-(2-hydroxyphenyl)pyridazin-4-yl)piperazin-1-yl)-7-oxoheptyl)oxy)-2-(2,6-dioxopiperidin-3-yl)isoindoline-1,3-dione]

DC50 [4]: 3.9 nM
SMILES: Nc1nnc(-c2ccccc2O)cc1N1CCN(C(=O)CCCCCCCCCOc2cccc3c2C(=O)N(C2CCC(=O)NC2=O)C3=O)CC1 (centres unmarked) [Compound 8, 4-((10-(4-(3-amino-6-(2-hydroxyphenyl)pyridazin-4-yl)piperazin-1-yl)-10-oxodecyl)oxy)-2-(2,6-dioxopiperidin-3-yl)isoindoline-1,3-dione]

IC50 [1]: 162 nM
DC50 [4]: 2.86 nM
SMILES: Nc1nnc(-c2ccccc2O)cc1N1CCN(C(=O)CCCCCCCCOc2cccc3c2C(=O)N(C2CCC(=O)NC2=O)C3=O)CC1 (centres unmarked) [Compound 3, 4-((9-(4-(3-amino-6-(2-hydroxyphenyl)pyridazin-4-yl)piperazin-1-yl)-9-oxononyl)oxy)-2-(2,6-dioxopiperidin-3-yl)isoindoline-1,3-dione]

DC50 [4]: 6.42 nM
SMILES: Nc1nnc(-c2ccccc2O)cc1N1CCN(C(=O)CCCCCCCOc2cccc3c2C(=O)N(C2CCC(=O)NC2=O)C3=O)CC1 (centres unmarked) [Compound 6, 4-((8-(4-(3-amino-6-(2-hydroxyphenyl)pyridazin-4-yl)piperazin-1-yl)-8-oxooctyl)oxy)-2-(2,6-dioxopiperidin-3-yl)isoindoline-1,3-dione]
